Key:
Type in all cases: in vivo
[1] = test system: Triticum aestivum (TRZAS); test: Post-emergence crop plant compatibility, greenhouse pot test
Summary of the method: (§1)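 Visual % damage scores were taken roughly 3 weeks after treatment, relative to untreated plants, where 100% means plants died and 0% means no difference. Plants received aqueous sprays (WP or EC, 0.5% additive, 600 l/ha) on green parts at the one-leaf stage, 2–3 weeks after sowing.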

Zea mays (ZEAMX) = test: as above; conditions: Zea mays, in vivo
Summary of the method: as §1

Bassia scoparia (KCHSC) = test: Post-emergence herbicidal action, greenhouse pot test
Summary of the method: (§2)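 Visual rating, about 3 weeks post-spray, relative to untreated plants: 100% activity means plants died, 0% means no difference from control. Plants in sandy loam were treated at one-leaf stage (2–3 weeks after sowing) with compound as WP or EC in water, 0.5% additive, 600 l/ha.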

[2] = test system: Pharbitis purpurea (PHBPU); test: as above
Summary of the method: as §2

Veronica persica (VERPE) = test: as above
Summary of the method: as §2

[3] = test system: Amaranthus retroflexus (AMARE); test: as above
Summary of the method: as §2

[4] = test system: Polygonum convolvulus (POLCO); test: as above
Summary of the method: as §2

[5] = test system: Abutilon theophrasti (ABUTH); test: as above
Summary of the method: as §2

[6] = test system: Tripleurospermum inodorum (MATIN); test: as above
Summary of the method: as §2

Lolium rigidum (LOLRI) = test: as above
Summary of the method: as §2

[7] = test system: Digitaria sanguinalis (DIGSA); test: as above
Summary of the method: as §2

[8] = test system: Echinochloa crus-galli (ECHCG); test: as above
Summary of the method: as §2

Setaria viridis (SETVI) = test: as above
Summary of the method: as §2

[9] = test system: Alopecurus myosuroides (ALOMY); test: as above
Summary of the method: as §2

Viola tricolor (VIOTR) = test: as above
Summary of the method: as §2

[10] = crop plant, post-emergence, 1.25 g/ha

SMILES | Post-emergence effect at 1.25 g/ha against KCHSC in % (Bassia scoparia (KCHSC)) [%] | Post-emergence effect at 5 g/ha against KCHSC in % (Bassia scoparia (KCHSC)) [%] | Post-emergence effect at 20 g/ha against KCHSC in % (Bassia scoparia (KCHSC)) [%] | Post-emergence effect at 1.25 g/ha against VERPE in % (Veronica persica (VERPE)) [%] | Post-emergence effect at 1.25 g/ha against ABUTH in % [5] [%] | Post-emergence effect at 20 g/ha against LOLRI in % (Lolium rigidum (LOLRI)) [%] | Post-emergence effect at 1.25 g/ha against DIGSA in % [7] [%] | Post-emergence effect at 5 g/ha against DIGSA in % [7] [%] | Post-emergence effect at 20 g/ha against DIGSA in % [7] [%] | Post-emergence effect at 5 g/ha against ECHCG in % [8] [%] | Post-emergence effect at 5 g/ha against ALOMY in % [9] [%] | Post-emergence effect at 1.25 g/ha against VIOTR in % (Viola tricolor (VIOTR)) [%] | Post-emergence effect at 5 g/ha against VIOTR in % (Viola tricolor (VIOTR)) [%] | Post-emergence effect at 1.25 g/ha against TRZAS in % [1, 10] [%] | Post-emergence effect at 1.25 g/ha against PHBPU in % [2] [%] | Post-emergence effect at 5 g/ha against PHBPU in % ([2]; 5 g/ha) [%] | Post-emergence effect at 20 g/ha against PHBPU in % ([2]; 20 g/ha) [%] | Post-emergence effect at 5 g/ha against VERPE in % (Veronica persica (VERPE); 5 g/ha) [%] | Post-emergence effect at 20 g/ha against VERPE in % (Veronica persica (VERPE); 20 g/ha) [%] | Post-emergence effect at 1.25 g/ha against AMARE in % ([3]; 1.25 g/ha) [%] | also measured
Cn1c(C(F)(F)F)cc(=O)n(-c2cc(Oc3ccccc3OCC(=O)OCC3CC34CC4)c(Cl)cc2F)c1=O (stereo not drawn) [I.7-18, Spiro[2.2]pentan-1-ylmethyl (2-{2-chloro-4-fluoro-5-[3-methyl-2,6-dioxo-4-(trifluoromethyl)-3,6-dihydropyrimidin-1(2H)-yl]phenoxy}phenoxy)acetate] | 100 | 100 | 100 | 80 | 100 | 100 | 100 | 100 | 100 | 100 | 80 | 100 | 100 |  |  |  |  |  |  |  | Post-emergence effect at 1.25 g/ha against TRZAS in % ([1]; Triticum aestivum, in vivo): 10%; Post-emergence effect at 1.25 g/ha against ZEAMX in % (Zea mays (ZEAMX)): 20%; pest or weed control at 5 g/ha ([2]; Ipomoea purpurea, 504 h, 5 g/ha, read-out: Post-emergence effect at 5 g/ha against PHBPU in %): 100%; pest or weed control at 20 g/ha ([2]; Ipomoea purpurea, 504 h, 20 g/ha, read-out: Post-emergence effect at 20 g/ha against PHBPU in %): 100%; pest or weed control at 5 g/ha (Veronica persica (VERPE); Veronica persica, 504 h, 5 g/ha, read-out: Post-emergence effect at 5 g/ha against VERPE in %): 100%; pest or weed control at 20 g/ha (Veronica persica (VERPE); Veronica persica, 504 h, 20 g/ha, read-out: Post-emergence effect at 20 g/ha against VERPE in %): 100%; pest or weed control at 1.25 g/ha ([3]; Amaranthus retroflexus, 504 h, 1.25 g/ha, read-out: Post-emergence effect at 1.25 g/ha against AMARE in %): 100%; pest or weed control at 5 g/ha ([3]; Amaranthus retroflexus, 504 h, 5 g/ha, read-out: Post-emergence effect at 5 g/ha against AMARE in %): 100%; pest or weed control at 20 g/ha ([3]; Amaranthus retroflexus, 504 h, 20 g/ha, read-out: Post-emergence effect at 20 g/ha against AMARE in %): 100%; Post-emergence effect at 1.25 g/ha against POLCO in % ([4]; 1.25 g/ha): 100%; pest or weed control at 5 g/ha ([4]; Fallopia convolvulus, 504 h, 5 g/ha, read-out: Post-emergence effect at 5 g/ha against POLCO in %): 100%; pest or weed control at 20 g/ha ([4]; Fallopia convolvulus, 504 h, 20 g/ha, read-out: Post-emergence effect at 20 g/ha against POLCO in %): 100%; pest or weed control at 5 g/ha ([5]; Abutilon theophrasti, 504 h, 5 g/ha, read-out: Post-emergence effect at 5 g/ha against ABUTH in %): 100%; pest or weed control at 20 g/ha ([5]; Abutilon theophrasti, 504 h, 20 g/ha, read-out: Post-emergence effect at 20 g/ha against ABUTH in %): 100%; pest or weed control at 20 g/ha ([6]; Tripleurospermum inodorum, 504 h, 20 g/ha, read-out: Post-emergence effect at 20 g/ha against MATIN in %): 100%; pest or weed control at 20 g/ha ([8]; Echinochloa crus-galli, 504 h, 20 g/ha, read-out: Post-emergence effect at 20 g/ha against ECHCG in %): 100%; pest or weed control at 5 g/ha (Setaria viridis (SETVI); Setaria viridis, 504 h, 5 g/ha, read-out: Post-emergence effect at 5 g/ha against SETVI in %): 100%; pest or weed control at 20 g/ha (Setaria viridis (SETVI); Setaria viridis, 504 h, 20 g/ha, read-out: Post-emergence effect at 20 g/ha against SETVI in %): 100%; pest or weed control at 20 g/ha ([9]; Alopecurus myosuroides, 504 h, 20 g/ha, read-out: Post-emergence effect at 20 g/ha against ALOMY in %): 100%; pest or weed control at 20 g/ha (Viola tricolor (VIOTR); Viola tricolor, 504 h, 20 g/ha, read-out: Post-emergence effect at 20 g/ha against VIOTR in %): 100%
Cn1c(C(F)(F)F)cc(=O)n(-c2cc(Oc3ccccc3OCC(=O)OCC3(C#N)CC3)c(Cl)cc2F)c1=O [I.7-7] | 100 | 100 | 100 | 100 |  | 100 |  | 100 | 100 | 100 | 80 | 100 | 100 | 10 | 100 | 100 | 100 | 100 | 100 | 100 | Post-emergence effect at 5 g/ha against AMARE in % ([3]; 5 g/ha): 100%; Post-emergence effect at 20 g/ha against AMARE in % ([3]; 20 g/ha): 100%; Post-emergence effect at 5 g/ha against POLCO in % ([4]; 5 g/ha): 100%; Post-emergence effect at 20 g/ha against POLCO in % ([4]; 20 g/ha): 100%; Post-emergence effect at 5 g/ha against ABUTH in % ([5]; 5 g/ha): 100%; Post-emergence effect at 20 g/ha against ABUTH in % ([5]; 20 g/ha): 100%; Post-emergence effect at 5 g/ha against MATIN in % [6]: 100%; Post-emergence effect at 20 g/ha against MATIN in % ([6]; 20 g/ha): 100%; Post-emergence effect at 20 g/ha against ECHCG in % ([8]; 20 g/ha): 100%; Post-emergence effect at 1.25 g/ha against SETVI in % (Setaria viridis (SETVI)): 100%; Post-emergence effect at 5 g/ha against SETVI in % (Setaria viridis (SETVI); 5 g/ha): 100%; Post-emergence effect at 20 g/ha against SETVI in % (Setaria viridis (SETVI); 20 g/ha): 100%; Post-emergence effect at 20 g/ha against ALOMY in % ([9]; 20 g/ha): 100%; Post-emergence effect at 20 g/ha against VIOTR in % (Viola tricolor (VIOTR); 20 g/ha): 100%
Cn1c(C(F)(F)F)cc(=O)n(-c2cc(Oc3ccccc3OCC(=O)OCC3CC3(F)F)c(Cl)cc2F)c1=O (stereo not drawn) [I.7-8] | 100 | 100 | 100 | 100 | 100 | 80 | 100 | 100 | 100 | 100 | 80 | 100 | 100 | 20 | 80 | 100 | 100 | 100 | 100 | 100 | Post-emergence effect at 5 g/ha against AMARE in % ([3]; 5 g/ha): 100%; Post-emergence effect at 20 g/ha against AMARE in % ([3]; 20 g/ha): 100%; Post-emergence effect at 5 g/ha against POLCO in % ([4]; 5 g/ha): 100%; Post-emergence effect at 20 g/ha against POLCO in % ([4]; 20 g/ha): 100%; Post-emergence effect at 5 g/ha against ABUTH in % ([5]; 5 g/ha): 100%; Post-emergence effect at 20 g/ha against ABUTH in % ([5]; 20 g/ha): 100%; Post-emergence effect at 5 g/ha against MATIN in % [6]: 100%; Post-emergence effect at 20 g/ha against MATIN in % ([6]; 20 g/ha): 100%; Post-emergence effect at 20 g/ha against ECHCG in % ([8]; 20 g/ha): 100%; Post-emergence effect at 1.25 g/ha against SETVI in % (Setaria viridis (SETVI)): 100%; Post-emergence effect at 5 g/ha against SETVI in % (Setaria viridis (SETVI); 5 g/ha): 100%; Post-emergence effect at 20 g/ha against SETVI in % (Setaria viridis (SETVI); 20 g/ha): 100%; Post-emergence effect at 20 g/ha against ALOMY in % ([9]; 20 g/ha): 100%; Post-emergence effect at 20 g/ha against VIOTR in % (Viola tricolor (VIOTR); 20 g/ha): 100%

From patent US20260138958A1, “SUBSTITUTED N-PHENYLURACILS AND SALTS THEREOF, AND USE THEREOF AS HERBICIDAL ACTIVE SUBSTANCES” (Bayer Aktiengesellschaft, priority 2022, published 2026)
